Counter-ions that a name gives are not always drawn.
How the values were obtained:
human TLR7 = human TLR7 (Homo sapiens (Human), UniProt Q9NYK1); experiment: HEK-Blue hTLR7 SEAP reporter agonist assay; assay type: cell-based; settings: HEK-Blue hTLR7 cells, 24 hours, SEAP OD650
Description: (§1) Experimental Example 1: Screening for In Vitro Receptor Binding Activity of Human Toll-Like Receptor 7 (TLR7) and Human Toll-Like Receptor 8 (TLR8)
(§2) The HEK-Blue™ hTLR7 (catalog No.: hkb-htlr7) and HEK-Blue™ hTLR8 (catalog No.: hkb-htlr8) cell lines used in this experiment were purchased from InvivoGen. The two cell lines were constructed by a human embryonic kidney 293 cell line stably co-transfecting hTLR7 or hTLR8 and inducing expression of Secreted Alkaline Phosphatase (SEAP) reporter gene, wherein SEAP reporter gene was regulated by an IFN-β promoter. […]
(§3) 2. […] The cells were counted and the cell suspension was adjusted to 500,000 cells/mL with the culture medium. […]
(§4) 4. Activity assay on the compound: 20 µL of the induced cell supernatant from each well was added to a cell culture plate containing 180 µL of QUANTI-Blue™ reagent, and after incubation at 37° C. for 1 hour, the optical density absorbance at 650 nm (OD650) was assayed for each well using a multi-functional microplate reader.
(§5) 5. Activity assay on the cells: luciferase signal (RLU) was detected using a multi-functional microplate reader as per the process described in the instructions of ATPlite 1 Step.
(§6) 6. Data analysis: compound activity: OD650 values were analyzed using a GraphPad Prism software and the dose-response curves of the compound were fitted to calculate EC50 values (half maximal effect concentration) for the compound.

[1] = Pharmacokinetic study in mice; assay type: in vivo; settings: mouse, plasma
Procedure: Experimental Example 3: Pharmacokinetic Study in Mice
This experiment was intended to evaluate the pharmacokinetic behavior of the compound after a single intravenous injection or intragastric administration in mice.
The concentration of the test compound in plasma was determined by high performance liquid chromatography-tandem mass spectrometry (LC-MS/MS). The retention times of the compound and internal standard, chromatogram acquisitions and integrals of chromatograms were processed using the software Analyst (Applied Biosystems), and the data statistics were processed using the software Watson LIMS (Thermo Fisher Scientific) or Analyst (Applied Biosystems).
The plasma concentrations were processed using a non-compartmental model of WinNonlin™ Version 6.3 (Pharsight, Mountain View, CA), a pharmacokinetic software, and the pharmacokinetic parameters were calculated using a linear-log trapezoidal method.
The related pharmacokinetic parameters in the mice at 1 mg/Kg intravenous injection and 5 mg/Kg oral intragastric administration of the hydrochloride of the compound of formula (I) are shown in Table 4 below.

human TLR8 = human TLR8 (Homo sapiens (Human), UniProt Q9NR97); experiment: HEK-Blue hTLR8 SEAP reporter agonist assay; assay type: cell-based; settings: HEK-Blue hTLR8 cells, 24 hours, SEAP OD650
Chain of human TLR8 (Q9NR97 27-1041): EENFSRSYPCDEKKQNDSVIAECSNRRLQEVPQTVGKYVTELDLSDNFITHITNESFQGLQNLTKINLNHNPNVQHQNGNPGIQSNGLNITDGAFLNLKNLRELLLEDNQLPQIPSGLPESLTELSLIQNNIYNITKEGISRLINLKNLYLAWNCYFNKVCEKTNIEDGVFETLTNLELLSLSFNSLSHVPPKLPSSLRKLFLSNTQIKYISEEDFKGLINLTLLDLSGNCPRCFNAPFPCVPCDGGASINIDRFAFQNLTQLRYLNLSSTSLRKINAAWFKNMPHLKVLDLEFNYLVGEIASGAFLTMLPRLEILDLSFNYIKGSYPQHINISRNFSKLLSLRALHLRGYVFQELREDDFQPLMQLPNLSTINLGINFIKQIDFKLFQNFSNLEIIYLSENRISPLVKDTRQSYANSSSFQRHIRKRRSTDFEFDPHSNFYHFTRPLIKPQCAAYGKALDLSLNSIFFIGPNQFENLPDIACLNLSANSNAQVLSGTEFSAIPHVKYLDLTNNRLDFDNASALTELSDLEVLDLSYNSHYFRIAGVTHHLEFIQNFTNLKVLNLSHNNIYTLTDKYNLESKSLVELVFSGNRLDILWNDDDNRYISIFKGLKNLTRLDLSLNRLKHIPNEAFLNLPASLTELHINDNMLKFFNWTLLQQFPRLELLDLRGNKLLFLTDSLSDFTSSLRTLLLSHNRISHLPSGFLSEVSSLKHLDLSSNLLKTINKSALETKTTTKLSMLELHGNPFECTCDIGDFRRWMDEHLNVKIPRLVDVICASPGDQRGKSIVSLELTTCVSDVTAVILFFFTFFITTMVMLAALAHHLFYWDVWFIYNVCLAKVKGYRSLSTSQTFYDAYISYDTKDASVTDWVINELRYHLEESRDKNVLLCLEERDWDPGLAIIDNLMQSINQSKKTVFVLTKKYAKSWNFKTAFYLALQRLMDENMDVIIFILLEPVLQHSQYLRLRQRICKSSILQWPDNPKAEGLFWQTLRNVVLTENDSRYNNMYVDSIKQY
Description: as §1, §2, §3, §4, §5, §6

[2] = High-humidity (25° C./92.5 RH) stability testing; assay type: physicochemical; settings: for Appearance / Content / Enantiomer / Total impurity content / Water: 25° C./92.5RH
Procedure: 3) Testing for the Effect of Humidity
Each sample was placed in an open low-form weighing bottle and tested under high-humidity conditions (25° C./92.5 RH).

[3] = Accelerated stability testing (40±2° C./75±5% RH); assay type: physicochemical
Procedure: Inner packaging: a double-layer medical low-density polyethylene bag; outer packaging: an aluminum foil bag.
Test conditions: 40±2° C./75±5% RH.

Photostability testing = assay type: physicochemical; settings: for Appearance / Content / Enantiomer / Total impurity content / Water: photostability
Description: 1) Photostability Testing
Two test samples (one as a 5-day test sample, the other as a 10-day test sample) and two controls (one as a 5-day control, the other as a 10-day control) were used. The test samples were spread as thin layers on clean watch glasses and covered with quartz glass covers. The controls were packaged in the same manner as the test samples except that the watch glasses were covered with aluminum film.
Test conditions: a photostability tester.

[4] = High-temperature (60° C.) stability testing; assay type: physicochemical
Procedure: 2) Testing for the Effect of Temperature
Each sample was placed on an open watch glass and tested under high-temperature conditions (60° C.).

[5] = oral intragastric administration 5 mg/Kg
[6] = Day 5, control group (aluminum film)
[7] = Day 10, control group (aluminum film)

Chain of human TLR7 (Q9NYK1 27-1049): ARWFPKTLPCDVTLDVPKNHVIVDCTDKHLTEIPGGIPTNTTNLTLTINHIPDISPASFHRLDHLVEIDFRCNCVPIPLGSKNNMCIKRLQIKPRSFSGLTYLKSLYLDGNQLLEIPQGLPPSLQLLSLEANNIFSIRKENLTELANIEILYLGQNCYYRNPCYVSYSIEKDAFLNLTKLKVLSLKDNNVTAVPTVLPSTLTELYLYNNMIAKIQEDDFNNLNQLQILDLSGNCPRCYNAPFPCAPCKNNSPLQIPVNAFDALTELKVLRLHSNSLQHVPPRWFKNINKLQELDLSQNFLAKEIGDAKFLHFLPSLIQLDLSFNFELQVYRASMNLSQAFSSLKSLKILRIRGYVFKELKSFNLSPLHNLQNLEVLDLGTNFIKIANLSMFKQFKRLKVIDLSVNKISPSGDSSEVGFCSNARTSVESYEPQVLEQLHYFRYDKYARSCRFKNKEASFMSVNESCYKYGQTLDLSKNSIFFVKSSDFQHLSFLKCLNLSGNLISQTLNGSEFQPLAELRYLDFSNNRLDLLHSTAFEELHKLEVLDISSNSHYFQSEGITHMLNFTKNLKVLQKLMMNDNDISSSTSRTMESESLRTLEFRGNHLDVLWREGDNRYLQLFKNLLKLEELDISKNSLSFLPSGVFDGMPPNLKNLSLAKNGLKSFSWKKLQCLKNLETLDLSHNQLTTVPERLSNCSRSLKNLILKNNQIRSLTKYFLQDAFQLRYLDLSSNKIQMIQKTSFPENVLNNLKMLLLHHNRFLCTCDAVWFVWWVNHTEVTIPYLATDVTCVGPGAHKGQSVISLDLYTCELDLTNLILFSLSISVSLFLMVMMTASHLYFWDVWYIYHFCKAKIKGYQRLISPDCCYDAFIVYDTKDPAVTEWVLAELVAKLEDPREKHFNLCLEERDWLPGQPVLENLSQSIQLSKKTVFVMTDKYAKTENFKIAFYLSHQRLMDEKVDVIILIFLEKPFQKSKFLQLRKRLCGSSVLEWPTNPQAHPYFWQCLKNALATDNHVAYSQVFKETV

With `CCCC[C@](C)(Cc1ncn[nH]1)Nc1nc(N)nc2cnccc12` [Hydrochloride of compound of formula (I)] the EC50 (human TLR7) was 33.3 µM, the bioavailability ([1]; 5 mg/Kg oral vs 1 mg/Kg intravenous, read-out: Bioavailability (F%)) was 27.7% and the AUC(0-t) ([1]; intravenous injection 1 mg/Kg) was 0.45 µM·h. For the same compound, the clearance ([1]; intravenous injection 1 mg/Kg) was 90.2 mL/min/kg, the Vd ([1]; intravenous injection 1 mg/Kg, read-out: Vdss) was 1.75 L/kg and the half-life ([1]; intravenous injection 1 mg/Kg, read-out: t½ (converted)) was 15 min. It also gave an AUC(0-t) [1, 5] of 0.624 µM·h, a Cmax [1, 5] of 421 nM and a Tmax [1, 5] of 30 min. For the same compound, the EC50 (human TLR8) was 0.003 µM.

In the case of `CCCC[C@](C)(Cc1ncn[nH]1)Nc1nc(N)nc2cnccc12`, the “High-humidity stability (conclusion)” value ([2]; 25° C./92.5 RH, 5-day, 10-day and 30-day) is reported as “good high-humidity stability”, the Appearance ([2]; Day 5) is reported as “Off-white powder” and the Content ([2]; Day 5) is reported as 98.8%. The Enantiomer ([2]; Day 5) was 0.35%, the Total impurity content ([2]; Day 5) was <0.05% and the Water ([2]; Day 5) was 0.29%. The Appearance ([2]; Day 10) was “Off-white powder”, the Content ([2]; Day 10) was 99.4% and the Enantiomer ([2]; Day 10) was 0.35%. For the same compound, the Total impurity content ([2]; Day 10) was <0.05%, the Water ([2]; Day 10) was 0.29% and the Appearance ([2]; Day 30) was “Off-white powder”. For the same compound, the Content ([2]; Day 30) was 98.7%, the Enantiomer ([2]; Day 30) was 0.35% and the Total impurity content ([2]; Day 30) was <0.05%. For the same compound, the Water ([2]; Day 30) was 0.30%, the Appearance ([2]; initial value) was “Off-white powder” and the Content ([2]; initial value) was 98.3%. For the same compound, the Enantiomer ([2]; initial value) was 0.34%, the Total impurity content ([2]; initial value) was <0.05% and the Water ([2]; initial value) was 0.19%. For the same compound, the Appearance ([3]; Month 1) was “Off-white powder”, the Content ([3]; Month 1) was 98.9% and the Total impurity content ([3]; Month 1) was <0.05%. For the same compound, the Water ([3]; Month 1) was 0.30%, the Appearance ([3]; Month 2) was “Off-white powder” and the Content ([3]; Month 2) was 99.5%. The Total impurity content ([3]; Month 2) was <0.05%, the Water ([3]; Month 2) was 0.31% and the Appearance ([3]; Month 3) was “Off-white powder”. For the same compound, the Content ([3]; Month 3) was 98.8%, the Enantiomer ([3]; Month 3) was 0.32% and the “Stability under accelerated conditions (conclusion, XRPD)” value ([3]; Month 3) was “stays stable under accelerated conditions”. For the same compound, the Total impurity content ([3]; Month 3) was <0.05%, the Water ([3]; Month 3) was 0.28% and the XRPD ([3]; Month 3) was “Crystal form A”. The Appearance ([3]; Month 6) was “Off-white powder”, the Content ([3]; Month 6) was 99.3% and the Enantiomer ([3]; Month 6) was 0.34%. The Total impurity content ([3]; Month 6) was <0.05%, the Water ([3]; Month 6) was 0.34% and the Appearance ([3]; initial value) was “Off-white powder”. The Content ([3]; initial value) was 98.3%, the Enantiomer ([3]; initial value) was 0.34% and the Total impurity content ([3]; initial value) was <0.05%. The Water ([3]; initial value) was 0.19%, the XRPD ([3]; initial value) was “Crystal form A” and the “Photostability (conclusion)” value (Photostability testing; lighting conditions, 5-day and 10-day) was “good photostability”. For the same compound, the Appearance (Photostability testing; [6]) was “Off-white powder”, the Content (Photostability testing; [6]) was 98.7% and the Enantiomer (Photostability testing; [6]) was 0.35%. For the same compound, the Total impurity content (Photostability testing; [6]) was <0.05%, the Water (Photostability testing; [6]) was 0.25% and the Appearance (Photostability testing; Day 5, test group) was “Off-white powder”. The Content (Photostability testing; Day 5, test group) was 98.8%, the Enantiomer (Photostability testing; Day 5, test group) was 0.34% and the Total impurity content (Photostability testing; Day 5, test group) was <0.05%. The Water (Photostability testing; Day 5, test group) was 0.24%, the Appearance (Photostability testing; [7]) was “Off-white powder” and the Content (Photostability testing; [7]) was 99.1%. The Enantiomer (Photostability testing; [7]) was 0.36%, the Total impurity content (Photostability testing; [7]) was <0.05% and the Water (Photostability testing; [7]) was 0.25%. For the same compound, the Appearance (Photostability testing; Day 10, test group) was “Off-white powder”, the Content (Photostability testing; Day 10, test group) was 98.6% and the Enantiomer (Photostability testing; Day 10, test group) was 0.34%. The Total impurity content (Photostability testing; Day 10, test group) was <0.05%, the Water (Photostability testing; Day 10, test group) was 0.25% and the Appearance (Photostability testing; initial value) was “Off-white powder”. The Content (Photostability testing; initial value) was 98.3%, the Enantiomer (Photostability testing; initial value) was 0.34% and the Total impurity content (Photostability testing; initial value) was <0.05%. For the same compound, the Water (Photostability testing; initial value) was 0.19%, the “High-temperature stability (conclusion)” value ([4]; 5-day, 10-day and 30-day) was “good high-temperature stability” and the Appearance ([4]; Day 5) was “Off-white powder”. For the same compound, the Content ([4]; Day 5) was 99.1%, the Enantiomer ([4]; Day 5) was 0.35% and the Total impurity content ([4]; Day 5) was <0.05%. The Water ([4]; Day 5) was 0.25%, the Appearance ([4]; Day 10) was “Off-white powder” and the Content ([4]; Day 10) was 99.0%. The Enantiomer ([4]; Day 10) was 0.37%, the Total impurity content ([4]; Day 10) was <0.05% and the Water ([4]; Day 10) was 0.24%. The Appearance ([4]; Day 30) was “Off-white powder”, the Content ([4]; Day 30) was 98.2% and the Enantiomer ([4]; Day 30) was 0.34%. The Total impurity content ([4]; Day 30) was <0.05%, the Water ([4]; Day 30) was 0.26% and the Appearance ([4]; initial value) was “Off-white powder”. The Content ([4]; initial value) was 98.3%, the Enantiomer ([4]; initial value) was 0.34% and the Total impurity content ([4]; initial value) was <0.05%. It also gave a Water ([4]; initial value) of 0.19%.

Reference: patent publication US20230303557A1, “CRYSTALLINE FORM OF TLR8 AGONIST” (CHIA TAI TIANQING PHARMACEUTICAL GROUP CO., LTD., priority 2020, published 2023)
